Assay results from patent publication US8486924B2, “Taxane delivery system” (Celator Pharmaceuticals, Inc., priority 2007, dated 2013).
Read-outs that look alike come from different tables or passages of the source.

Key:
[1] = test system: HT29 human colon carcinoma cells; conditions: Q4Dx6, nanoparticle formulations; for therapeutic activity in HT29 model: 34 μmol/kg dose; for treatment induced delay in reaching a mean tumor size of 500 mm^3: HT29 model, 36 μmol/kg
Protocol: Female athymic nude mice (7-8 weeks old) were inoculated subcutaneously with 100 μl HT29 human colon carcinoma cells (2×10^6 cells) using a 26 gauge needle. Mice were randomly grouped (n=6/group) with a mean tumor size between 80 and 120 mg prior to first treatment. […] Subsequent injections were made according to the designated schedule. Tumor length and width measurements, body weight and in life observations were recorded 2-3 times per week. Tumor weight was calculated according to the formula (L×W^2)/2.
The relative efficacies of nanoparticle formulations of 1, 2, 4, 5, 6 and 7 were determined in the HT29 model using a 36 μmol/kg dose on a Q4Dx6 schedule (FIG. 3). Saline was used as a negative control.
The activity of 7 in POPC/2.5kPS3k nanoparticle formulations relative to paclitaxel was determined by comparing the efficacy of doses ranging from 0.25 to 3 mole equivalents of paclitaxel (FIG. 4) in the HT29 tumor model. Taxol® dosed at 23 μmol/kg on a Q2Dx5 schedule was used as a positive control.
The tumor growth data was analyzed by two methods to determine what dose of 7 would be equivalent to the Taxol® positive control.

[2] = test system: A2780 human tumor cell line; assay: MTT growth inhibition, A2780 cells, 72 hours; conditions: read-out: IC50 values A2780, prodrug/POPC/2kPS3k (1:1:2) formulations, ± SD
[3] = test system: MCF-7 human tumor cell line; conditions: read-out: IC50 values MCF-7; prodrug/POPC/2kPS3k (1:1:2) formulations; 72 hours; MTT; ± SD
[4] = volume weighted average
Protocol: The prodrug, co-lipid and stabilizer polymers (typically on a 1:1:2 w/w basis) were dissolved in ethanol/THF (4:1) at a concentration of 40 mg/ml. The solvent was rapidly diluted with water using a four port CVIJ mixer^13, 14 with flow rates set at […] (solvent/water/water/water). Flow rates were controlled using Harvard Apparatus PHD2000 syringe pumps. The resultant solution was then dialyzed against water to remove residual solvent. […] When higher concentrations were required the dialyzed solution was diluted with equi-volumes of 600 mM sucrose and then concentrated using a 100 kD, 0.5 mm lumen, 60 cm path length MidGee hoop cartridge (GE Healthcare Life Sciences, Piscataway, N.J.) with a peristaltic pump. Particle size was determined using a Malvern Zetasizer Nano-ZS particle sizer and reported as volume weighted data.
Formulations were composed of a prodrug, a co-lipid and an amphipathic stabilizer in a weight ratio of 1:1:2, respectively at a concentration of 40 mg per mL of solvent. […] Poly(ethylene glycol)-b-polystyrene (2kPS3k or 2.5kPS3k) was used as the amphipathic stabilizer. Other stabilizers may also be used.

[5] = mouse, in vivo
Protocol: Athymic nude mice (n=3/timepoint) were injected iv with test samples (10 μl/g body weight, to a maximum of 250 μl). Blood was collected at the designated time point by cardiac puncture and placed into EDTA coated microtainer tubes (BD Biosciences). The tubes were centrifuged at 2800 rpm for 10 minutes. Plasma was recovered and 50 μl aliquots analyzed by HPLC for drug content. Samples containing ^3H—CHE (50 μl) were diluted with PicoFluor40™ scintillation fluid (Packard) and counted on a Beckman-Coulter LS 6500 Multipurpose scintillation counter. The total drug (counts) per mouse in the blood compartment was calculated assuming a plasma volume of 0.04125 mL per gram of body weight.
Elimination studies tracking both the prodrug and the particle were conducted to obtain a more accurate description of the partitioning behavior of the prodrugs in vivo (FIG. 1). Prodrug elimination was followed by HPLC, while particle elimination rates were determined by labeling nanoparticles with tritiated cholesterylhexadecyl ether (3H—CHE).
Formulations comprised of 1/VES/2kPS3k (1:1:2) and 2/VES/2kPS3k (1:1:2) were labeled with trace amounts of ^3H—CHE and plasma levels of both the label and prodrug were monitored in Foxn1^nu mice (FIG. 1, Panel A).
Effect of prodrug partitioning on plasma drug elimination was determined. The prodrug panel was screened using prodrug/POPC/2kPS3k (1:1:2) nanoparticles in Foxn1^nu mice to determine elimination rates for the different prodrug conjugates (FIG. 2). […] Conjugates were formulated at a concentration of 0.7 mg/mL.
In order to estimate the partitioning half-life for each prodrug, it was assumed that 1 tracked the particle elimination rate based on the results discussed above. The elimination of all other prodrugs were then fitted to four parameter double exponential decay curves and normalized against 1.

[6] = vortexing 30 seconds
Protocol: The physical stability of formulations was investigated by examining changes in particle size after vortexing prodrug/co-lipid/2.5kPS3k (1:1:2) nanoparticles in water, 150 mM saline or 300 mM sucrose (Table 1). […] The increase in particle size was monitored by using dynamic light scattering to measure the Z average (the intensity weighted mean size of the particle distribution) value for samples before and after vigorous vortexing. The change in the Zave value was used as surrogate readout for the formation of aggregates or precipitates resulting from mechanical instability, where a higher value for ΔZave indicated a higher level of aggregation or precipitation (Table 1).

[7] = test system: MCF-7 breast carcinoma cell line; conditions: literature reference 7; cited from earlier work
[8] = unbuffered processed plasma sample
Excerpt: Methanol:acetonitrile 1:4 (v:v) was effective in near complete precipitation of plasma proteins and liberation of the prodrug from the nanoparticle.

[9] = prodrug/POPC/2.5kPS3k (1:1:2) nanoparticles in water
[10] = co-lipid POPC, prodrug/co-lipid/2.5kPS3k (1:1:2)

Compound | IC50 [2] | IC50 [3] | Diameter [4, 9] | partitioning half life [5] | ΔZave 150 mM saline [6, 10] | ΔZave 300 mM sucrose [6, 10] | ΔZave water [6, 10] | further results
2′-O-(4″-O-tocopherylsuccinoyl)-paclitaxel [Prodrug 1] | 0.192 µM | 0.158 ± 0.072 µM |  |  |  |  |  | therapeutic activity in HT29 model [1]: no evidence of any therapeutic activity
CC(=O)O[C@H]1C(=O)[C@@]2(C)[C@H]([C@H](OC(=O)c3ccccc3)[C@]3(O)C[C@H](OC(=O)[C@H](OC(=O)COCC(=O)O[C@H]4CC[C@@]5(C)C(=CC[C@H]6[C@@H]7CC[C@H]([C@H](C)CCCC(C)C)[C@@]7(C)CC[C@@H]65)C4)[C@@H](NC(=O)c4ccccc4)c4ccccc4)C(C)=C1C3(C)C)[C@]1(OC(C)=O)CO[C@@H]1C[C@@H]2O [Prodrug 8, 2′-O-(5″-O-cholesteryldiglycoloyl)-paclitaxel] | 0.027 ± 0.0011 µM | 0.0241 ± 0.0006 µM | 23 nm | approximately 21 h | 42 nm | 41 nm | 47 nm | 
CCCCCCCCCCCCCCCC(=O)OC(C(=O)OC1CC2(O)C(OC(=O)c3ccccc3)C3C4(OC(C)=O)COC4CC(O)C3(C)C(=O)C(OC(C)=O)C(=C1C)C2(C)C)C(NC(=O)c1ccccc1)c1ccccc1 (stereo not shown) [2′-O-hexadecanoylpaclitaxel] |  |  |  |  |  |  |  | IC50 [7]: 8.6 µM
CCCCCCCCCCCCCCC(Br)C(=O)O[C@@H](C(=O)O[C@H]1C[C@@]2(O)[C@@H](OC(=O)c3ccccc3)[C@@H]3[C@]4(OC(C)=O)CO[C@@H]4C[C@H](O)[C@@]3(C)C(=O)[C@H](OC(C)=O)C(=C1C)C2(C)C)[C@@H](NC(=O)c1ccccc1)c1ccccc1 (stereo partly shown) [2′-(2″-bromohexadecanoyl)paclitaxel] |  |  |  |  |  |  |  | IC50 [7]: 0.07 µM
CCCCCCCCCCCCCCCCCCCCOC(=O)COCC(=O)O[C@@H](C(=O)O[C@H]1C[C@@]2(O)[C@@H](OC(=O)c3ccccc3)[C@@H]3[C@]4(OC(C)=O)CO[C@@H]4C[C@H](O)[C@@]3(C)C(=O)[C@H](OC(C)=O)C(=C1C)C2(C)C)[C@@H](NC(=O)c1ccccc1)c1ccccc1 [Prodrug 6, 2′-O-(5″-O-cosanyldiglycoloyl)-paclitaxel] | 0.029 ± 0.0013 µM | 0.0166 ± 0.0045 µM | 23 nm | ~6.5 h | 26 nm | 36 nm | 21 nm | treatment induced delay in reaching a mean tumor size of 500 mm^3 [1]: 15 days; hydrolysis of prodrug after processing plasma samples ([8]; after 9 hours): completely hydrolyzed
CCCCCCCCCCCCCC(=O)OC[C@H](COC(=O)COCC(=O)O[C@@H](C(=O)O[C@H]1C[C@@]2(O)[C@@H](OC(=O)c3ccccc3)[C@@H]3[C@]4(OC(C)=O)CO[C@@H]4C[C@H](O)[C@@]3(C)C(=O)[C@H](OC(C)=O)C(=C1C)C2(C)C)[C@@H](NC(=O)c1ccccc1)c1ccccc1)OC(=O)CCCCCCCCCCCCC [Prodrug 9, 2′-O-(5″-O-(1′″,2′″-dimyristoyl-sn-glycero)diglycoloyl)-paclitaxel] | 0.0347 ± 0.0013 µM | 0.0322 ± 0.0013 µM | 23 nm | 8.5 h | 171 nm | 0 nm | 167 nm | 
CCCCCCCCCCCCCCCCCCOC(=O)COCC(=O)O[C@@H](C(=O)O[C@H]1C[C@@]2(O)[C@@H](OC(=O)c3ccccc3)[C@@H]3[C@]4(OC(C)=O)CO[C@@H]4C[C@H](O)[C@@]3(C)C(=O)[C@H](OC(C)=O)C(=C1C)C2(C)C)[C@@H](NC(=O)c1ccccc1)c1ccccc1 [Prodrug 5, 2′-O-(5″-O-octadecyldiglycoloyl)-paclitaxel] | 0.0209 ± 0.0109 µM | 0.0011 ± 0.0015 µM | 21 nm | 1.7 h | 24 nm | 7 nm | 20 nm | Diameter ([4]; no co-lipid, prodrug/2.5kPS3k nanoparticles in water): 28 nm; Diameter ([4]; prodrug/VES/2.5kPS3k (1:1:2) nanoparticles in water): 7 nm; treatment induced delay in reaching a mean tumor size of 500 mm^3 [1]: 4 days; ΔZave 150 mM saline ([6]; co-lipid VES, 2.5kPS3k): 372 nm; ΔZave 300 mM sucrose ([6]; co-lipid VES, 2.5kPS3k): 10 nm; ΔZave water ([6]; co-lipid VES, 2.5kPS3k): 3 nm; ΔZave 150 mM saline ([6]; no co-lipid, 2.5kPS3k): 774 nm; ΔZave 300 mM sucrose ([6]; no co-lipid, 2.5kPS3k): 71 nm; ΔZave water ([6]; no co-lipid, 2.5kPS3k): 109 nm
CCCCCCCC/C=C\CCCCCCCCOC(=O)COCC(=O)O[C@@H](C(=O)O[C@H]1C[C@@]2(O)[C@@H](OC(=O)c3ccccc3)[C@@H]3[C@]4(OC(C)=O)CO[C@@H]4C[C@H](O)[C@@]3(C)C(=O)[C@H](OC(C)=O)C(=C1C)C2(C)C)[C@@H](NC(=O)c1ccccc1)c1ccccc1 [Prodrug 4, 2′-O-(5″-O-oleyldiglycoloyl)-paclitaxel] | 0.0284 µM | 0.0159 ± 0.0007 µM | 22 nm |  | 25 nm | 5 nm | 15 nm | treatment induced delay in reaching a mean tumor size of 500 mm^3 [1]: 3 days
CC(=O)O[C@H]1C(=O)[C@@]2(C)[C@H]([C@H](OC(=O)c3ccccc3)[C@]3(O)C[C@H](OC(=O)[C@H](O)[C@@H](NC(=O)c4ccccc4)c4ccccc4)C(C)=C1C3(C)C)[C@]1(OC(C)=O)CO[C@@H]1C[C@@H]2O [Paclitaxel] |  |  |  |  |  |  |  | IC50 [7]: < 0.001 µM
CCCCCCCC/C=C\CCCCCCCCOC(=O)CCC(=O)O[C@@H](C(=O)O[C@H]1C[C@@]2(O)[C@@H](OC(=O)c3ccccc3)[C@@H]3[C@]4(OC(C)=O)CO[C@@H]4C[C@H](O)[C@@]3(C)C(=O)[C@H](OC(C)=O)C(=C1C)C2(C)C)[C@@H](NC(=O)c1ccccc1)c1ccccc1 [Prodrug 2, 2′-O-(4″-O-oleylsuccinoyl)-paclitaxel] | 0.0751 µM | 0.067 ± 0.0059 µM | 26 nm |  | 43 nm | 10 nm | 20 nm | therapeutic activity in HT29 model [1]: no evidence of any therapeutic activity; prodrug plasma clearance compared with 3H-CHE label ([5]; iv): cleared significantly faster; prodrug remaining after processing plasma samples ([8]; after 68 hours): approximately 25%
CC(=O)OC1C(=O)C2(C)C(O)CC3OCC3(OC(C)=O)C2C(OC(=O)c2ccccc2)C2(O)CC(OC(=O)C(OC(=O)COCC(=O)Oc3c(C)c(C)c4c(c3C)CCC(C)(CCCC(C)CCCC(C)CCCC(C)C)O4)C(NC(=O)c3ccccc3)c3ccccc3)C(C)=C1C2(C)C (stereo not shown) [Prodrug 3, 2′-O-(5″-O-tocopheryldiglycoloyl)-paclitaxel] | 0.0253 µM | 0.0134 ± 0.0024 µM | 24 nm | approximately 13 h | 55 nm |  | 125 nm | 
